Data on five molecules can be found in patent US20250115828A1, “INACTIVATING AGENT FOR ENVELOPED VIRUSES” (priority 2022, published 2025).

For data set [1], the system named is Influenza A virus (H1N1, A/PR/8/34) ATCC VR-1469. Kind of data set: Anti-influenza virus verification test (focus assay on MDCK cells). Format: cell-based. As to conditions: for Evaluation result (Δ LOG (FFU/mL) class) / Minimum inactivation concentration: Influenza virus; for Minimum inactivation concentration: minimum concentration at which Δ LOG (FFU/mL) is 3 or more; for inactivation effect in the presence of hardness components (in words): Table 5: influenza virus, 4 °DH, contact 10 min.

The nature of data set [2]: Critical micelle concentration at 25° C. by pyrene fluorescence intensity ratio I1/I3. As to conditions: ion exchange water. Format: physicochemical. The procedure:
A critical micelle concentration of component (a) or (a′) at 25° C. was measured by the method below.
A 1×10^−3 mol/L ethanol solution of pyrene (FUJIFILM Wako Pure Chemical Corporation) was prepared in a brown screw cap tube, and 5 μl of the solution was placed in a screw cap tube (No. 3) and dried with dry air. 5 mL of an aqueous solution of component (a) or (a′) to be measured (prepared with ion exchange water) was added thereto and processed with an ultrasonic cleaner for 15 minutes, and using this, fluorescence spectrum measurements were performed with a fluorescence spectrophotometer (Fluorescence Spectrophotometer F-7000 (manufactured by Hitachi High-Tech Corporation)). Fluorescence intensities I1 and I3 at wavelengths λ1 of 373 nm and λ3 of 384 nm were measured under the measurement conditions below to calculate fluorescence intensity ratio I1/I3.
A graph was prepared on which the horizontal axis plots a concentration of component (a) or (a′) and the vertical axis plots a fluorescence intensity ratio I1/I3, at each concentration, and a surfactant concentration at the midpoint between the maximum value and the minimum value of I1/I3 was taken as the critical micelle concentration.
Excitation wavelength: 339 nm, slit on the excitation side: […], slit on the fluorescence side: […], scanning rate: 60 nm/min, liquid temperature: 25° C., measurement range: 350 to 400 nm

Data set [3] deals with Betacoronavirus 1 (OC43) ATCC VR-1558. Kind of data set: Anti-human coronavirus verification test (TCID50 on HCT-8 cells). Format: cell-based.
Data set [4] has as its system Pseudomonas syringae phage ϕ6 (NBRC 105899). Kind of data set: Anti-bacteriophage ϕ6 verification test (plaque assay). Type of data set: cell-based. As to conditions: Bacteriophage Φ6; hardness of water 0 °DH; contact time 10 min; minimum concentration at which Δ LOG (PFU/mL) is 3 or more.
Data set [5] in a line: Krafft point measurement with rhodamine 6G. As to conditions: 0.2 mass % in ion exchange water. Format: physicochemical. The procedure:
A krafft point of component (a) or (a′) was measured by the method below.
A solution obtained by diluting component (a) or (a′) with ion exchange water to attain a total amount of 5 mL and a concentration of 0.2 mass % was prepared and placed in a glass test tube, and the fluorescent dye rhodamine 6G (FUJIFILM Wako Pure Chemical Corporation) was then added to attain a final concentration of 0.02 mM. After the test tube was placed in an ice bath to condition a temperature at 5° C., the temperature was raised at a temperature rise rate of 0.5° C./min, and a temperature at which the solution emitted fluorescence was taken as the krafft point. Component (a) or (a′) which had emitted fluorescence at 5° C. was considered to have a krafft point of less than 5° C.

[6] abbreviates: 100 ppm, hardness of water 0 °DH, contact time 0.5 min.
Setting [7] is: 100 ppm, hardness of water 0 °DH, contact time 1 min.
The mark [8] stands for this setting: 100 ppm, hardness of water 0 °DH, contact time 5 min.
Setting [9] is: 100 ppm, hardness of water 0 °DH, contact time 10 min.
The mark [10] stands for this setting: hardness of water 0 °DH, contact time 10 min.
Setting [11] is: Human coronavirus, hardness of water 0 °DH, contact time 10 min, […].
Where [12] appears, read: 500 ppm, hardness of water 4 °DH, contact time 10 min.

Read-outs that look alike come from different tables or passages of the source.

For `CCCCC(CC)COC(=O)CC(C(=O)OCC(CC)CCCC)S(=O)(=O)[O-].[Na+]` (stereo not shown) [(a′-1), sodium di(2-ethylhexyl)sulfosuccinate], the “Evaluation result (Δ LOG (FFU/mL) class)” value is 1 (a Δ LOG (FFU/mL) of the infectious titers of less than 1) in data set [1] (setting [6]); 1 (a Δ LOG (FFU/mL) of the infectious titers of less than 1) in data set [1] (setting [7]); 1 (a Δ LOG (FFU/mL) of the infectious titers of less than 1) in data set [1] (setting [8]); 2 (a Δ LOG (FFU/mL) of 1 or more and less than 2) in data set [1] (setting [9]). Besides, the Minimum inactivation concentration is listed as 250 ppm in data set [1] (setting [10]), over 250 ppm in data set [3] and 250 ppm in data set [4]. The “critical micelle concentration (25° C.)” value in data set [2] was found to be 0.0028 mol/L.
With `CCCCCCCCCCCCCCCCOS(=O)(=O)[O-].[Na+]` [(a′-3), sodium alkyl sulfate with 16 carbons], the Minimum inactivation concentration in data set [1] (setting [10]) is reported as over 500 ppm; in data set [3] (setting [11]) it was >>2000 ppm; in data set [4], over 500 ppm. Besides, the “critical micelle concentration (25° C.)” value in data set [2] was 0.00045 mol/L. The molecule also had a krafft point in data set [5] of 40 °C.
Turning to `CCCCCCCCCCCCOS(=O)(=O)[O-].[Na+]` [(a′-4), sodium alkyl sulfate with 12 carbons], the Minimum inactivation concentration in data set [1] (setting [10]) is on record as over 500 ppm; in data set [3] (setting [11]), over 2000 ppm; in data set [4] it was over 500 ppm. Besides, in data set [2], the “critical micelle concentration (25° C.)” value was 0.0082 mol/L.
As for `CCCCCCCC/C=C\CCCCCCCC(=O)[O-].[K+]` [(a′-5), potassium oleate], the “Evaluation result (Δ LOG (FFU/mL) class)” value in data set [1] (setting [12]) was 1 (a Δ LOG (FFU/mL) of the infectious titers of less than 1). Besides, the “inactivation effect in the presence of hardness components (in words)” value in data set [1] (500 ppm) is on record as “insufficient inactivation effect”. Further, the “critical micelle concentration (25° C.)” value in data set [2] stood at 0.0015 mol/L.
For “sodium di(2-propylheptyl)sulfosuccinate [(a-1)]”, the “Evaluation result (Δ LOG (FFU/mL) class)” value in data set [1] (setting [6]), in data set [1] (setting [7]), in data set [1] (setting [8]), in data set [1] (setting [9]) and in data set [1] (setting [12]) was 4 (a Δ LOG (FFU/mL) of 3 or more) throughout. Besides, the values for the Minimum inactivation concentration in data set [1] (setting [10]), in data set [3] (setting [11]) and in data set [4] were 50 ppm, 100 ppm and 10 ppm, respectively. Moreover, the “inactivation effects on the enveloped virus by short-time contact (in words)” value in data set [1] (Table 4: influenza virus, 100 ppm, 0 °DH, contact 0.5 to 10 min, compared to comparative examples 5 and 6) is listed as “high inactivation effects”. The “inactivation effect in the presence of hardness components (in words)” value in data set [1] (500 ppm) is “high inactivation effects”. In addition, in data set [2], the “critical micelle concentration (25° C.)” value came to 0.00035 mol/L.
